According to the NIST ThermoML archive (doi:10.1016/j.jct.2015.08.014):

Assay: xn = mol fraction of the nth substance listed
Conditions: 323.15 K, 100 kPa, Liquid, Alternating current cell with electrodes

CCCC[N+]1(C)CCCC1.N#CN=C=[N-] [1-butyl-1-methylpyrrolidinium dicyanamide] + O=C1CCCO1
electrical conductivity [S/m]
Conditions | Frequency=0.001 MHz | Frequency=0.0015 MHz | Frequency=0.002 MHz | Frequency=0.0025 MHz | Frequency=0.003 MHz | Frequency=0.00347222 MHz | Frequency=0.004 MHz | Frequency=0.00446429 MHz | Frequency=0.005 MHz | Frequency=0.005454 MHz
x1 = 0.0463 | – | 2 | 2 | 2.01 | 2.01 | 2.01 | 2.01 | 2.01 | 2.01 | 2.01
x1 = 0.0987 | 3.06 | 3.07 | 3.07 | 3.07 | 3.08 | 3.08 | 3.08 | 3.08 | 3.08 | 3.08
x1 = 0.1449 | 3.56 | 3.56 | 3.56 | 3.56 | 3.56 | 3.57 | 3.57 | 3.57 | 3.57 | 3.57
x1 = 0.1859 | 3.83 | 3.84 | 3.84 | 3.85 | 3.85 | 3.85 | 3.85 | 3.85 | 3.85 | 3.85
x1 = 0.2493 | 3.89 | 3.89 | 3.89 | 3.89 | 3.89 | 3.89 | 3.89 | 3.89 | 3.89 | 3.89
x1 = 0.3029 | 3.86 | 3.87 | 3.87 | 3.87 | 3.87 | 3.87 | 3.87 | 3.87 | 3.87 | 3.88
x1 = 0.3845 | 3.732 | 3.73 | 3.74 | 3.74 | 3.74 | 3.74 | 3.74 | 3.74 | 3.74 | 3.74
x1 = 0.4985 | 3.46 | 3.46 | 3.46 | 3.46 | 3.46 | 3.46 | 3.46 | 3.46 | 3.46 | 3.46
x1 = 0.6954 | 2.99 | 2.99 | 2.99 | 2.99 | 2.99 | 2.99 | 2.99 | 2.99 | 2.99 | 2.99
x1 = 0.9013 | 2.626 | 2.628 | 2.63 | 2.63 | 2.631 | 2.632 | 2.632 | 2.632 | 2.633 | –
x1 = 1 | 2.526 | 2.527 | 2.528 | 2.528 | 2.528 | 2.528 | 2.529 | 2.529 | 2.529 | –
